The conditions of data set [1]: in vivo; cited from earlier work.
Data set [2] concerns Patient-derived cell line RN1 (MGMT unmethylated GBM). As to the kind of experiment: Efficacy in balb/c nude mice harboring intracranial patient-derived glioblastoma (RN1), Kaplan-Meier survival. Conditions: for survival rate: at 105 days, control 0%; for median survival time: gavage daily; for mice that survived longer than the longest surviving mouse in the control group: n=8. How it is done:
Patient-derived cell line RN1 (2 μL) was intra-cranially injected into balb/c nude mice.
6-8 week old balb/c nude mice were used. All procedures, except autopsies, were carried out within a laminar flow cabinet. Tumors were induced following the procedure disclosed in Wakimoto H. et al. (2012) Neuro Oncol. 14(2): 132-44. Balb/c nude mice were weighed and held in groups of four. The mice received an analgesic 2 hours prior to primary human tumor cell implantation—the mice were injected subcutaneously with 5 mg/kg Rimadyl (Carprofen). The animals were anesthetized via continuous mask inhalation of isoflurane (2.5-3%, 1 L/min oxygen for induction and 1-2.5%, 0.2 L/min oxygen for maintenance). The depth of anesthesia was assessed by toe pinch reflex (leg withdrawal) before the procedure began (cf. monitoring sheet #1).
A 2 mm drill hole was made at the stereotactically in the right caudate putamen using the coordinates 1 mm anterior, 1.5 mm lateral, and 3.0 mm below the bregma. A micro-injector unit (holding a 2 μl Hamilton syringe with a 25-gauge needle) connected to the manipulating arm of the stereotactic device was used to inject a 2 μL solution containing 200,000 primary human tumor cells dorsoventrally (DV) at −3 from the skull surface, to deposit cells into the lateral portion of the striatum (right basal ganglia). All injections were made over a period of 10 minutes to ensure optimal parenchymal compliance. The micro-injector needle was retracted and the burr hole in the skull closed using bone-wax (Johnson & Johnson) in order to prevent extracranial tumor growth. Skin was closed using a tissue adhesive (Vetbond). Mice received sterile eye drops (Systane) throughout the procedure to avoid eye dryness.
Two dosages of ibudilast were administered to the balb/c nude mice: 5 mg/kg and 20 mg/kg (both in 100 uL total volume). The dosage of ibudilast was extrapolated from multiple animal studies on rats looking at the treatment of multiple sclerosis (MS) disease and models of central neuropathic pain (Ellis et al. 2014; Reagan-shaw et al. 2008).
10 mg/kg of temozolomide (TMZ) was administered to the balb/c nude mice through intraperitoneal injection.
Five treatment groups were used as follows: • 1. Ibudilast 5 mg/kg by gavage (n=8) • 2. Ibudilast: 20 mg/kg by gavage (n=8) • 3. Combination 1: Ibudilast (5 mg/kg)+TMZ (10 mg/kg) (n=8) • 4. Combination 2: Ibudilast (20 mg/kg)+TMZ (10 mg/kg) (n=8) • 5. Control saline containing polyoxyethylene hydrogenated castor oil 60; 100 μL) (n=8)
For all of the treatment groups (except the control group), ibudilast was administered by gavage (daily) for approximately 59 days (until the last control mouse died) and TMZ was administered via intraperitoneal injection (daily) for two weeks.
At approximately 43 days after tumor implantation, mice were treated with temozolomide (10 mg/kg) and/or ibudilast (5 mg/kg or 20 mg/kg). Ibudilast was administered in a solution of saline containing polyoxyethylene hydrogenated castor oil 60 using the gavage method (100 μl total volume) (Fujimoto et al., 1999 J Neuroimmunology 95:1-2, 35-42). Temozolomide was delivered by intraperitoneal injection (I.P.) in 0.1% dimethyl sulfoxide (DMSO, […] total volume).
At this particular time, animals were carefully monitored (twice daily) as neurological decline can occur rapidly. Typical signs of neurological decline include a hunched posture with an arched back, continuous circling, walking on tip-toes, balance issues, closed eyes, hyperactivity, and seizures. Neurological decline was scored (cf. monitoring sheet #3) for each animal.
When signs of pain, distress or neurological decline were noted, animals were immediately euthanized by inhalation of a progressive overdose of carbon dioxide (cf. B.7). Animals were also immediately euthanized if they lost more than 20% of their body weight.

Each structure is given as a SMILES string.

Turning to `CC(C)C(=O)c1c(C(C)C)nn2ccccc12` [ibudilast, 3-isobutyryl-2-isopropylpyrazolo[1,5-a]pyridine], in data set [1], the CNS penetration result is given as “good CNS penetration”. Moreover, in data set [2] (5 and 20 mg/kg), the “effect in the mouse glioblastoma model” value is on record as “positive effect”. The figures for the survival rate in data set [2] (ibudilast 5 mg/kg) and in data set [2] (ibudilast 20 mg/kg) were 12% and 25%, respectively. In addition, the median survival time in data set [2] (ibudilast 5 mg/kg (low dose) monotherapy, control 100.5 days) is given as 89 days; in data set [2] (ibudilast 20 mg/kg (high dose) monotherapy, control 100.5 days), 97.5 days. The “mice that survived longer than the longest surviving mouse in the control group” value in data set [2] (ibudilast 5 mg/kg) is “one mouse”; in data set [2] (ibudilast 20 mg/kg), “two mice”. Besides, the “median survival compared with controls (significance)” value in data set [2] (monotherapy at either low dose (5 mg/kg) or high dose (20 mg/kg)) was “did not significantly differ from the controls”.

As for `COc1ccc(C2CNC(=O)C2)cc1OC1CCCC1` (centres unmarked) [rolipram], in data set [1], the CNS penetration result was “poor penetration”.

As to `Cn1nnc2c(C(N)=O)ncn2c1=O` [TMZ, temozolomide], the median survival in data set [2] (TMZ 10 mg/kg intraperitoneal daily for two weeks, control 100.5 days) was found to be 105.5 days.
